Source: article PMC10390775, “CETP inhibitor evacetrapib enters mouse brain tissue” (Frontiers in Pharmacology, 2023)

Columns and labels:
[1] = continuous administration; ref Small et al., 2015; Nurmohamed et al., 2022; cited from earlier work
[2] = Semi-PBPK three-compartment model of distribution to the brain; parameters: species or system mice
Procedure: A semi-physiological-based pharmacokinetic (PBPK) model was developed to obtain more mechanistic information on the distribution of evacetrapib in the brain. First, a two-compartmental model (i.e., a plasma and a peripheral compartment) with a first-order elimination rate was fitted to describe the kinetics of the compound in plasma ([Mukherjee, 2022]) (Figure 1). Second, a third compartment was added and connected to the plasma compartment (Figure 1). The brain compartment was subdivided into vascular and tissue sub-compartments, with mass balance differential equations describing a distribution in the tissue that can be limited by diffusion as follows ([Shen, 2010]): dABrT/dt=PA∙CBrP−PA∙CBrT/PBr, (9) CBrT=ABrT/VBr1−VBrVF, (10) dABrP/dt=QBrCp−CBrP−PA∙CBrP−PA∙CBrT/PBr, (11) CBrP=ABrP/VBr∙VBrVF∙PF, (12) CBr=ABrT+ABrP/VBr, (13) where ABrT is the amount in the brain tissue, ABrP is the amount in the brain plasma, CBrP the concentration in the brain plasma, CBrT the concentration in the brain tissue subcompartment, CBr the concentration in the brain, Cp the plasma concentration, PA the permeability area product, PBr the brain-to-plasma partition coefficient, PF the plasma fraction of the blood, VBrVF the vascular volume fraction of the brain, VBr the volume of the brain, and QBr plasma flow to the brain.
Several scenarios were tested using this semi-PBPK model and brain concentration data to determine the mechanisms that best explain accumulation in the brain: 1) no permeability (i.e., PA = 0 L/h); 2) a perfusion-limited distribution (PA > 1,000,000 L/h) using the predicted PBr ([Poulin and Haddad, 2011]); 3) a perfusion-limited distribution with a low PBr (fitted); 4) a diffusion-limited distribution (fitted PA) using the predicted PBr; and 5) diffusion-limited distribution (fitted PA) and low PBr (fitted).
We used a semi-physiological three-compartment model to simulate the in vivo data (Figure 1). The parameters for the plasma and peripheral compartments were fitted to the plasma concentration at 40 mg/kg BW (Table 1; Figure 5B) ([Brown et al., 1997]; [Peyret et al., 2010]). Then, four scenarios were simulated assuming the following: a) perfusion-limited distribution with the predicted brain-to-plasma partition coefficient (PBr), b) as in a) with a low PBr, c) diffusion-limited distribution with the predicted PBr, and d) as in c) with low PBr, against the brain concentration data corrected for residual blood as explained in the Methods section. When assuming perfusion-limited distribution, the model could not simulate the observed data (Figure 5A), even when we adjusted for PBr. […] Thus, we propose that evacetrapib enters the brain in a diffusion-limited manner, which could include some form of facilitated transport.

[3] = Rapid equilibrium dialysis, plasma on both sides of the membrane; type: in vitro ADME; settings: after 24 h, preliminary data
Description: One last factor we considered in this study was the mechanism by which evacetrapib is transported into brain tissue. To that effect, toxicokinetic parameters were derived from the blood and brain time courses, which indicate that the drug possibly requires some sort of transporter to reach peripheral compartments, such as the brain, and to clear from brain tissue. […] A possible explanation could be that evacetrapib enters the brain faster than it is cleared out of it, leading to a buildup in brain tissue. […] To determine which mechanisms are involved in evacetrapib distribution to the brain, a semi-PBPK model was developed (parameter values are in Table 1; Figure 5). To this end, we first aimed to determine the brain: plasma partition coefficient of evacetrapib using rapid equilibrium dialysis. […] This may be in line with our in vivo observations considering that only a small fraction of evacetrapib crossed the blood–brain barrier. However, the slow diffusion in our in vitro model is incongruent with the concentrations of evacetrapib found in the brain 2.2 h following intravenous injections. Thus, the implication of transporters cannot be excluded.

[4] = cited from earlier work
[5] = system: CETP in human plasma; parameters: method as in Cao et al., 2011; settings: ref Cao et al., 2011, read-out: IC50 of CETP inhibition; cited from earlier work
[6] = parameters: method as in Small et al., 2015; settings: ref Small et al., 2015; cited from earlier work
[7] = two-compartment model, fitted to plasma concentration at 40 mg/kg BW

Cc1cc(C)c2c(c1)[C@@H](N(Cc1cc(C(F)(F)F)cc(C(F)(F)F)c1)c1nnn(C)n1)CCCN2C[C@H]1CC[C@H](C(=O)O)CC1 [evacetrapib]
Accumulation in adipose tissues [1]: does not accumulate in adipose tissues | Permeability area product (PA) ([2]; fitted, diffusion-limited distribution): 1.1e-05 L/h | Kp ([2]; male, hCETPtg (C57BL/6J background), mouse, intravenous, 40 mg/kg BW, fitted to brain concentrations corrected for residual blood, read-out: Brain:plasma partition coefficient (PBr)): 0.06 | k el ([2]; male, hCETPtg (C57BL/6J background), mouse, intravenous, two-compartment model, fitted to plasma concentration at 40 mg/kg BW, read-out: Elimination constant (Kel) (converted)): 0.000386 s⁻¹ | Apparent plasma volume (Vplasma) [2, 7]: 0.01 L | Peripheral to plasma transfer constant (K21) [2, 7]: 1.21 h⁻¹ | Plasma to peripheral transfer constant (K12) [2, 7]: 2.4 h⁻¹ | Fraction diffused across the dialysis membrane [3]: 2% | Tolerated dose ([4]; rat, in vivo, po): up to 600 mg/kg BW/day | Oral absorption fraction ([4]; rats, oral gavage, ref Takubo et al., 2014, Simic et al., 2017): 25% | IC50 [5]: 36 nM | logP (octanol to water partition coefficient) [6]: 7.56
